Experimental data published in ChEMBL document CHEMBL1127423, “An evaluation of the antirhinoviral activity of acetylfuran replacements for 3-methylisoxazoles. Are 2-acetylfurans bioisosteres for 3-methylisoxazoles?” (J Med Chem, 1994).
Converted amounts (≈) assume the structure as drawn. The source made the active and inactive calls. The rule behind the calls is not given here.

How the values were obtained:
Human rhinovirus sp. [1] = experiment: Antirhinoviral activity calculated for mean of fifteen serotypes (HRV-1A, -1B, -2, -6, -14, -15, -21, -22, -25, -30, -41, --50, -67, -86, -89); type: functional
Human rhinovirus sp. [2] = experiment: Tested for in vitro antiviral activity against Human rhinovirus (HRV)-14; type: functional
Human rhinovirus sp. [3] = experiment: Compound was tested in vitro for minimal inhibitory constant against 80% of fifteen human rhinovirus serotypes
[4] = Partition coefficient (logP) (HPLC); type: physicochemical; conditions: octanol/water
Human rhinovirus sp. [5] = experiment: Compound was tested in vitro for minimal inhibitory constant against HRV-14; inactive against HRV-1A, -6, -14,-67; type: functional, organism-based
Human rhinovirus sp. [6] = experiment: Tested for in vitro antiviral activity against Human rhinovirus (HRV)-14; inactive against HRV-1A, -6, -14,-67; type: functional, organism-based
Human rhinovirus sp. [7] = experiment: Antirhinoviral activity calculated for mean of fifteen serotypes (HRV-1A, -1B, -2, -6, -14, -15, -21, -22, -25, -30, -41, --50, -67, -86, -89); inactive against HRV-1A, -6, -14,-67; type: functional, organism-based
Human rhinovirus sp. [8] = experiment: tested for in vitro antiviral activity against Human rhinovirus (HRV)-14; type: functional
Human rhinovirus sp. [9] = experiment: Compound was tested in vitro for minimal inhibitory constant against HRV-14; IA= Inactive; type: functional, organism-based
Human rhinovirus sp. [10] = experiment: Compound was tested in vitro for minimal inhibitory constant against HRV-14; high capacity tissue culture infectious dose; type: functional, organism-based
Human rhinovirus sp. [11] = experiment: Antirhinoviral activity calculated for mean of fifteen serotypes (HRV-1A, -1B, -2, -6, -14, -15, -21, -22, -25, -30, -41, --50, -67, -86, -89); inactive against HRV-6,-41,-67,-86; type: functional, organism-based
Human rhinovirus sp. [12] = experiment: tested for minimal inhibitory concentration against Human rhinovirus serotype 6 by plaque reduction assay; type: functional
Human rhinovirus sp. [13] = experiment: tested for minimal inhibitory concentration against Human rhinovirus serotype 2 by plaque reduction assay; type: functional
Human rhinovirus sp. [14] = experiment: tested for minimal inhibitory concentration against Human rhinovirus serotype 41 by plaque reduction assay; type: functional
Human rhinovirus sp. [15] = experiment: tested for minimal inhibitory concentration against Human rhinovirus serotype 1B by plaque reduction assay; type: functional
Human rhinovirus sp. [16] = experiment: tested for minimal inhibitory concentration against Human rhinovirus serotype 30 by plaque reduction assay; type: functional
Human rhinovirus sp. [17] = experiment: tested for minimal inhibitory concentration against Human rhinovirus serotype 86 by plaque reduction assay; type: functional
Human rhinovirus sp. [18] = experiment: tested for minimal inhibitory concentration against Human rhinovirus serotype 50 by plaque reduction assay; type: functional
Human rhinovirus sp. [19] = experiment: tested for minimal inhibitory concentration against Human rhinovirus serotype 1A by plaque reduction assay; type: functional
Human rhinovirus sp. [20] = experiment: tested for minimal inhibitory concentration against Human rhinovirus serotype 15 by plaque reduction assay; type: functional
Human rhinovirus sp. [21] = experiment: tested for minimal inhibitory concentration against Human rhinovirus serotype 21 by plaque reduction assay; type: functional
Human rhinovirus sp. [22] = experiment: tested for minimal inhibitory concentration against Human rhinovirus serotype 67 by plaque reduction assay; type: functional
Human rhinovirus sp. [23] = experiment: tested for minimal inhibitory concentration against Human rhinovirus serotype 14 by plaque reduction assay; type: functional
Human rhinovirus sp. [24] = experiment: tested for minimal inhibitory concentration against Human rhinovirus serotype 25 by plaque reduction assay; type: functional
Human rhinovirus sp. [25] = experiment: tested for minimal inhibitory concentration against Human rhinovirus serotype 22 by plaque reduction assay; type: functional
Human rhinovirus sp. [26] = experiment: tested for minimal inhibitory concentration against Human rhinovirus serotype 89 by plaque reduction assay; type: functional
Human rhinovirus sp. [27] = experiment: Tested for minimal inhibitory concentration against Human rhinovirus serotype 1B by plaque reduction assay; inactive; type: functional, organism-based
Human rhinovirus sp. [28] = experiment: Tested for minimal inhibitory concentration against Human rhinovirus serotype 30 by plaque reduction assay; type: functional
Human rhinovirus sp. [29] = experiment: Tested for minimal inhibitory concentration against Human rhinovirus serotype 2 by plaque reduction assay; type: functional
Human rhinovirus sp. [30] = experiment: Tested for minimal inhibitory concentration against Human rhinovirus serotype 15 by plaque reduction assay; type: functional
Human rhinovirus sp. [31] = experiment: Tested for minimal inhibitory concentration against Human rhinovirus serotype 22 by plaque reduction assay; type: functional
Human rhinovirus sp. [32] = experiment: Tested for minimal inhibitory concentration against Human rhinovirus serotype 1A by plaque reduction assay; type: functional
Human rhinovirus sp. [33] = experiment: Tested for minimal inhibitory concentration against Human rhinovirus serotype 14 by plaque reduction assay; type: functional
Human rhinovirus sp. [34] = experiment: Tested for minimal inhibitory concentration against Human rhinovirus serotype 25 by plaque reduction assay; inactive; type: functional, organism-based
Human rhinovirus sp. [35] = experiment: Tested for minimal inhibitory concentration against Human rhinovirus serotype 21 by plaque reduction assay; type: functional
Human rhinovirus sp. [36] = experiment: Tested for minimal inhibitory concentration against Human rhinovirus serotype 67 by plaque reduction assay; type: functional
Human rhinovirus sp. [37] = experiment: Tested for minimal inhibitory concentration against Human rhinovirus serotype 86 by plaque reduction assay; type: functional
Human rhinovirus sp. [38] = experiment: Tested for minimal inhibitory concentration against Human rhinovirus serotype 6 by plaque reduction assay; type: functional
Human rhinovirus sp. [39] = experiment: Tested for minimal inhibitory concentration against Human rhinovirus serotype 41 by plaque reduction assay; inactive; type: functional, organism-based
Human rhinovirus sp. [40] = experiment: Tested for minimal inhibitory concentration against Human rhinovirus serotype 89 by plaque reduction assay; type: functional
Human rhinovirus sp. [41] = experiment: Tested for minimal inhibitory concentration against Human rhinovirus serotype 50 by plaque reduction assay; type: functional

MIC80 (Human rhinovirus sp. [3]) [µM] | logP [4] | SMILES | Activity (Human rhinovirus sp. [1]) [µM] | Activity (Human rhinovirus sp. [2]) [µM] | other results
0.4 (≈ 0.142 µg/mL) |  | CC(=O)c1ccc(CCCOc2c(C)cc(-c3noc(C)n3)cc2C)o1 | 0.2 | 0.5 | 
0.4 (≈ 0.131 µg/mL) | 3.2 | Cc1cc(CCCOc2c(C)cc(-c3nnn(C)n3)cc2C)on1 | 0.5 | 1.7 | 
0.2 (≈ 0.0655 µg/mL) |  | Cc1cc(CCCOc2c(C)cc(-c3noc(C)n3)cc2C)on1 | 0.1 | 0.2 | 
0.8 (≈ 0.306 µg/mL) | 3.7 | CC(=O)c1ccc(CCCCCOc2c(C)cc(-c3nnn(C)n3)cc2C)o1 | 0.6 | 1.2 | 
 |  | Cc1ccc(CCCOc2c(C)cc(-c3noc(C)n3)cc2C)o1 |  |  | Activity (Human rhinovirus sp. [5]): inactive; Activity (Human rhinovirus sp. [6]): inactive; Activity (Human rhinovirus sp. [7]): inactive
0.9 (≈ 0.345 µg/mL) | 4.6 | Cc1cc(CCCCCOc2c(Cl)cc(C3=NCCO3)cc2Cl)on1 [WIN-54954] | 0.7 | 2.3 | 
 | 3.5 | Cc1cc(-c2nnn(C)n2)cc(C)c1OCCCCCc1ccc(C=O)o1 |  |  | Activity (Human rhinovirus sp. [8]): 27 µM; MIC80 (Human rhinovirus sp. [9]): inactive; Activity (Human rhinovirus sp. [7]): inactive
0.9 (≈ 0.449 µg/mL) |  | CC(=O)c1ccc(CCCCCOc2c(Br)cc(C3=NCCO3)cc2Br)o1 | 0.7 | 3.3 | 
 |  | Cc1ccc(CCCOc2c(C)cc(-c3nnn(C)n3)cc2C)o1 |  | 30 | MIC80 (Human rhinovirus sp. [10]): high capacity tissue culture infectious dose; Activity (Human rhinovirus sp. [11]): inactive
0.5 (≈ 0.177 µg/mL) | 3.2 | CC(=O)c1ccc(CCCOc2c(C)cc(-c3nnn(C)n3)cc2C)o1 | 0.3 | 0.5 | 
1.4 (≈ 0.661 µg/mL) |  | Cc1cc(CCCCCOc2c(Br)cc(C3=NCCO3)cc2Br)on1 | 0.6 | 2 | 
0.6 (≈ 0.213 µg/mL) | 3.6 | Cc1cc(CCCCCOc2c(C)cc(-c3nnn(C)n3)cc2C)on1 | 0.5 | 0.8 | 
1 (≈ 0.341 µg/mL) |  | CC(=O)c1ccc(CCCCCOc2ccc(C3=NCCO3)cc2)o1 | 0.9 | 1.1 | MIC (Human rhinovirus sp. [12]): 0.3 µM (≈ 0.102 µg/mL); MIC (Human rhinovirus sp. [13]): 0.5 µM (≈ 0.171 µg/mL); MIC (Human rhinovirus sp. [14]): 2.2 µM (≈ 0.751 µg/mL); MIC (Human rhinovirus sp. [15]): 0.3 µM (≈ 0.102 µg/mL); MIC (Human rhinovirus sp. [16]): 0.1 µM (≈ 0.0341 µg/mL); MIC (Human rhinovirus sp. [17]): 0.4 µM (≈ 0.137 µg/mL); MIC (Human rhinovirus sp. [18]): 0.2 µM (≈ 0.0683 µg/mL); MIC (Human rhinovirus sp. [19]): 0.2 µM (≈ 0.0683 µg/mL); MIC (Human rhinovirus sp. [20]): 0.7 µM (≈ 0.239 µg/mL); MIC (Human rhinovirus sp. [21]): 0.4 µM (≈ 0.137 µg/mL); MIC (Human rhinovirus sp. [22]): 1 µM (≈ 0.341 µg/mL); MIC (Human rhinovirus sp. [23]): 1 µM (≈ 0.341 µg/mL); MIC (Human rhinovirus sp. [24]): 4.5 µM (≈ 1.54 µg/mL); MIC (Human rhinovirus sp. [25]): 1.6 µM (≈ 0.546 µg/mL); MIC (Human rhinovirus sp. [26]): 0.05 µM (≈ 0.0171 µg/mL)
7 (≈ 2.2 µg/mL) |  | Cc1cc(CCCCCOc2ccc(C3=NCCO3)cc2)on1 |  | 0.7 | MIC (Human rhinovirus sp. [27]): inactive; MIC (Human rhinovirus sp. [28]): 0.3 µM (≈ 0.0943 µg/mL); MIC (Human rhinovirus sp. [29]): 1.1 µM (≈ 0.346 µg/mL); MIC (Human rhinovirus sp. [30]): 1.5 µM (≈ 0.472 µg/mL); MIC (Human rhinovirus sp. [31]): 0.9 µM (≈ 0.283 µg/mL); MIC (Human rhinovirus sp. [32]): 7 µM (≈ 2.2 µg/mL); MIC (Human rhinovirus sp. [33]): 0.7 µM (≈ 0.22 µg/mL); MIC (Human rhinovirus sp. [34]): inactive; MIC (Human rhinovirus sp. [35]): 1.2 µM (≈ 0.377 µg/mL); MIC (Human rhinovirus sp. [36]): 2.4 µM (≈ 0.755 µg/mL); MIC (Human rhinovirus sp. [37]): 0.1 µM (≈ 0.0314 µg/mL); MIC (Human rhinovirus sp. [38]): 0.06 µM (≈ 0.0189 µg/mL); MIC (Human rhinovirus sp. [39]): inactive; MIC (Human rhinovirus sp. [40]): 0.4 µM (≈ 0.126 µg/mL); MIC (Human rhinovirus sp. [41]): 1.5 µM (≈ 0.472 µg/mL); Activity (Human rhinovirus sp. [7]): inactive
0.7 (≈ 0.287 µg/mL) | 4.6 | CC(=O)c1ccc(CCCCCOc2c(Cl)cc(C3=NCCO3)cc2Cl)o1 | 0.5 | 2 | 
